Values joined by “and” are separate entries in the source; they are usually repeats but may differ in a detail not shown here. Equal entries are not always repeated. Toxic doses and inconclusive results are not listed.
System: L1210 leukemia ip in BDF1 mice, survival T/C
Assay: NCI In Vivo Anticancer Drug Screen. Data for tumor model L1210 Leukemia (intraperitoneal) in B6D2F1 (BDF1) mice
Details: endpoint: mean survival time, higher = longer survival
Procedure, shortened: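 Survival endpoint. Drug-treated group vs vehicle group, expressed as T divided by C. Tumor passaged by transplantation.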

[1] = dose: 200.0 mg/kg/injection, schedule: Q01DX009 (ip), vehicle: saline
[2] = dose: 400.0 mg/kg/injection, schedule: Q01DX009 (ip), vehicle: saline
[3] = dose: 100.0 mg/kg/injection, schedule: Q01DX001 (ip), vehicle: carboxymethylcellulose (CMC)
[4] = dose: 200.0 mg/kg/injection, schedule: Q01DX001 (ip), vehicle: carboxymethylcellulose (CMC)
[5] = dose: 400.0 mg/kg/injection, schedule: Q01DX001 (ip), vehicle: carboxymethylcellulose (CMC)
[6] = dose: 100.0 mg/kg/injection, schedule: Q04DX003 (ip), vehicle: saline with Tween-80
[7] = dose: 200.0 mg/kg/injection, schedule: Q04DX003 (ip), vehicle: saline with Tween-80
[8] = dose: 400.0 mg/kg/injection, schedule: Q04DX003 (ip), vehicle: saline with Tween-80
[9] = dose: 100.0 mg/kg/injection, schedule: Q01DX009 (ip), vehicle: Klucel (hydroxypropylcellulose) (HPC)
[10] = dose: 100.0 mg/kg/injection, schedule: Q04DX003 (ip), vehicle: Klucel (hydroxypropylcellulose) (HPC)
[11] = dose: 200.0 mg/kg/injection, schedule: Q01DX009 (ip), vehicle: Klucel (hydroxypropylcellulose) (HPC)
[12] = dose: 200.0 mg/kg/injection, schedule: Q04DX003 (ip), vehicle: Klucel (hydroxypropylcellulose) (HPC)
[13] = dose: 400.0 mg/kg/injection, schedule: Q01DX009 (ip), vehicle: Klucel (hydroxypropylcellulose) (HPC)
[14] = dose: 400.0 mg/kg/injection, schedule: Q04DX003 (ip), vehicle: Klucel (hydroxypropylcellulose) (HPC)
[15] = dose: 100.0 mg/kg/injection, schedule: Q01DX001 (ip), vehicle: saline
[16] = dose: 100.0 mg/kg/injection, schedule: Q01DX005 (ip), vehicle: saline
[17] = dose: 200.0 mg/kg/injection, schedule: Q01DX005 (ip), vehicle: saline
[18] = dose: 400.0 mg/kg/injection, schedule: Q01DX001 (ip), vehicle: saline
[19] = dose: 100.0 mg/kg/injection, schedule: Q01DX009 (ip), vehicle: saline with Tween-80
[20] = dose: 200.0 mg/kg/injection, schedule: Q01DX009 (ip), vehicle: saline with Tween-80
[21] = dose: 400.0 mg/kg/injection, schedule: Q01DX009 (ip), vehicle: saline with Tween-80
[22] = dose: 100.0 mg/kg/injection, schedule: Q01DX001 (ip), vehicle: Klucel (hydroxypropylcellulose) (HPC)
[23] = dose: 200.0 mg/kg/injection, schedule: Q01DX001 (ip), vehicle: Klucel (hydroxypropylcellulose) (HPC)
[24] = dose: 400.0 mg/kg/injection, schedule: Q01DX001 (ip), vehicle: Klucel (hydroxypropylcellulose) (HPC)
[25] = dose: 100.0 mg/kg/injection, schedule: Q04DX002 (ip), vehicle: Klucel (hydroxypropylcellulose) (HPC)
[26] = dose: 200.0 mg/kg/injection, schedule: Q04DX002 (ip), vehicle: Klucel (hydroxypropylcellulose) (HPC)
[27] = dose: 400.0 mg/kg/injection, schedule: Q04DX002 (ip), vehicle: Klucel (hydroxypropylcellulose) (HPC)

In the case of COC(=O)C1C2C3CC(C4CC43)C12 (centres undefined), the T/C (dose: 100.0 mg/kg/injection, schedule: Q01DX009 (ip), vehicle: saline) was 92 % of control, the T/C (dose: 100.0 mg/kg/injection, schedule: Q04DX003 (ip), vehicle: saline) was 93 % of control and the T/C [1] was 92 % of control. For the same molecule, the T/C (dose: 200.0 mg/kg/injection, schedule: Q04DX003 (ip), vehicle: saline) was 107 % of control, the T/C [2] was 96 % of control and the T/C (dose: 400.0 mg/kg/injection, schedule: Q04DX003 (ip), vehicle: saline) was 96 % of control.
In the case of CCOP(=O)(Nc1cc2c(cc1Cl)-c1ccccc1C2=O)OCC, the T/C [3] was 99 % of control, the T/C [4] was 89 % of control and the T/C [5] was 91 % of control.
In the case of N\C([S-])=N/N=C\C(=N/N=C(\N)[S-])C(O)C(O)C(O)CO.[Ni+2] (centres undefined), the T/C [6] was 96 % of control, the T/C [7] was 94 % of control and the T/C [8] was 91 % of control.
For CC(C)(C)NC(C1=CC(C)(C)c2ccccc2C1=O)c1ccccc1 (centres undefined), the T/C [9] was 98 % of control, the T/C [10] was 110 % of control and the T/C [11] was 104 % of control. For the same molecule, the T/C [12] was 102 % of control, the T/C [13] was 101 % of control and the T/C [14] was 102 % of control.
With CCOC(=O)C(CC)C(=O)OCC the T/C [6] was 104 % of control, the T/C [7] was 98 % of control and the T/C [8] was 93 % of control.
With CC(=O)OCC1OC(n2cnc3c(N)ncnc32)C(OC(C)=O)C1OC(C)=O (centres undefined) the T/C (dose: 50.0 mg/kg/injection, schedule: Q01DX001 (ip), vehicle: saline) was 100 % of control, the T/C [15] was 110 % of control and the T/C [16] was 93 % of control. For the same molecule, the T/C (dose: 200.0 mg/kg/injection, schedule: Q01DX001 (ip), vehicle: saline) was 94 % of control and 106 % of control, the T/C [17] was 95 % of control and the T/C [1] was 104 % of control. The T/C [18] was 94 % of control and the T/C [2] was 109 % of control.
For c1ccc(CCN2CCN(CCc3ccccn3)CC2)nc1, the T/C [15] was 98 % of control.
With O=C(Nc1cccc(NC(=O)Nc2cc(C(O)=Nc3ccc(C4=NCCN4)cc3)ccc2C(O)=Nc2ccc(C3=NCCN3)cc2)c1)Nc1cc(C(O)=Nc2ccc(C3=NCCN3)cc2)ccc1C(O)=Nc1ccc(C2=NCCN2)cc1 the T/C (dose: 15.0 mg/kg/injection, schedule: Q01DX Z (ip), vehicle: saline) was 92 % of control, the T/C (dose: 30.0 mg/kg/injection, schedule: Q01DX Z (ip), vehicle: saline) was 97 % of control and the T/C (dose: 60.0 mg/kg/injection, schedule: Q01DX Z (ip), vehicle: saline) was 102 % of control. The T/C (dose: 120.0 mg/kg/injection, schedule: Q01DX Z (ip), vehicle: saline) was 105 % of control.
O=C1CCCN1C(=O)c1ccccc1 was tested, and the T/C [19] was 101 % of control, the T/C [20] was 95 % of control and the T/C [21] was 95 % of control.
For COc1ccc2c(c1)CCc1cnoc1-2, the T/C [10] was 93 % of control, the T/C [12] was 95 % of control and the T/C [14] was 95 % of control.
In the case of CCN1C=C/C(=C/c2cc3scc(-c4ccccc4)[n+]3c3ccccc23)c2ccccc21, the T/C (dose: 0.01 mg/kg/injection, schedule: Q04DX003 (ip), vehicle: saline with Tween-80) was 108 % of control, the T/C (dose: 0.02 mg/kg/injection, schedule: Q04DX003 (ip), vehicle: saline with Tween-80) was 98 % of control and the T/C (dose: 0.04 mg/kg/injection, schedule: Q04DX003 (ip), vehicle: saline with Tween-80) was 93 % of control.
With CCN(CC)CCC(CNC(=O)CN(CC)CC)(c1cccc2ccccc12)C(C)C (centres undefined) the T/C (dose: 12.5 mg/kg/injection, schedule: Q01DX009 (ip), vehicle: saline) was 98 % of control, the T/C (dose: 12.5 mg/kg/injection, schedule: Q04DX003 (ip), vehicle: saline) was 94 % of control and the T/C (dose: 25.0 mg/kg/injection, schedule: Q01DX009 (ip), vehicle: saline) was 93 % of control. The T/C (dose: 25.0 mg/kg/injection, schedule: Q04DX003 (ip), vehicle: saline) was 110 % of control, the T/C (dose: 50.0 mg/kg/injection, schedule: Q01DX009 (ip), vehicle: saline) was 90 % of control and the T/C (dose: 50.0 mg/kg/injection, schedule: Q04DX003 (ip), vehicle: saline) was 104 % of control.
COc1ccc(/C=N/n2c(C)cc(C)c(C#N)c2=O)c(OC)c1OC was tested, and the T/C [19] was 100 % of control, the T/C [6] was 118 % of control and the T/C [20] was 91 % of control. The T/C [7] was 103 % of control, the T/C [21] was 107 % of control and the T/C [8] was 106 % of control.
In the case of S=C(Nc1ccccc1)N1CC1, the T/C [22] was 96 % of control, the T/C [6] was 91 % of control and the T/C [23] was 98 % of control. For the same molecule, the T/C [7] was 92 % of control, the T/C [24] was 94 % of control and the T/C [8] was 90 % of control.
O=C(O)/C(=C\c1cccnc1)NC(=O)c1ccccc1 was tested, and the T/C [25] was 90 % of control, the T/C [26] was 101 % of control and the T/C [27] was 96 % of control.
With CCOC(=O)C(C=O)(NC(=O)c1ccccc1)OCC (centres undefined) the T/C [6] was 94 % of control, the T/C [7] was 101 % of control and the T/C [8] was 105 % of control.
For Cc1cccc(C(=O)N(C)C(c2ccco2)P(=O)(c2ccccc2)c2ccccc2)c1 (centres undefined), the T/C (dose: 50.0 mg/kg/injection, schedule: Q01DX001 (ip), vehicle: carboxymethylcellulose (CMC)) was 103 % of control, the T/C (dose: 50.0 mg/kg/injection, schedule: Q01DX009 (ip), vehicle: carboxymethylcellulose (CMC)) was 94 % of control and 92 % of control and the T/C [3] was 104 % of control. For the same molecule, the T/C (dose: 100.0 mg/kg/injection, schedule: Q01DX009 (ip), vehicle: carboxymethylcellulose (CMC)) was 94 % of control and 95 % of control, the T/C [4] was 95 % of control and the T/C (dose: 200.0 mg/kg/injection, schedule: Q01DX009 (ip), vehicle: carboxymethylcellulose (CMC)) was 89 % of control.
With O=C1C=C(O)C2C3C=CC(CC3)C12 (centres undefined) the T/C [25] was 106 % of control, the T/C [26] was 106 % of control and the T/C [27] was 92 % of control.
In the case of O=C1C(Br)=CC(Br)=C/C1=N/Br, the T/C (dose: 50.0 mg/kg/injection, schedule: Q04DX003 (ip), vehicle: Klucel (hydroxypropylcellulose) (HPC)) was 108 % of control, the T/C [10] was 97 % of control and the T/C [12] was 93 % of control.
For CCOC(=O)C(O)(O)C(C)C, the T/C [15] was 113 % of control and the T/C [18] was 113 % of control.
In the case of O=P1(NCCCl)OCCC(OO)N1CCCl (centres undefined), the T/C (dose: 15.0 mg/kg/injection, schedule: Q01DX001 (ip), vehicle: Klucel (hydroxypropylcellulose) (HPC)) was 155 % of control, the T/C (dose: 23.0 mg/kg/injection, schedule: Q01DX001 (ip), vehicle: Klucel (hydroxypropylcellulose) (HPC)) was 158 % of control and the T/C (dose: 34.0 mg/kg/injection, schedule: Q01DX001 (ip), vehicle: Klucel (hydroxypropylcellulose) (HPC)) was 175 % of control. For the same molecule, the T/C (dose: 50.0 mg/kg/injection, schedule: Q01DX001 (ip), vehicle: Klucel (hydroxypropylcellulose) (HPC)) was 188 % of control and 196 % of control, the T/C (dose: 75.0 mg/kg/injection, schedule: Q01DX001 (ip), vehicle: Klucel (hydroxypropylcellulose) (HPC)) was 276 % of control and the T/C [22] was 182 % of control. The T/C [23] was 196 % of control and the T/C [24] was 95 % of control.
In the case of CCCCNC(=O)Nc1ccc(OC)cc1Cl, the T/C [9] was 102 % of control, the T/C [10] was 90 % of control and the T/C [11] was 106 % of control. For the same molecule, the T/C [12] was 97 % of control, the T/C [13] was 87 % of control and the T/C [14] was 92 % of control.
OC1OCC(OCc2ccccc2)C(OCc2ccccc2)C1OCc1ccccc1 (centres undefined) was tested, and the T/C [3] was 101 % of control, the T/C [4] was 101 % of control and the T/C [5] was 95 % of control.
CCC[N+]1=C(/C=C/c2ccc3cccnc3c2O)C(C)(C)c2ccccc21 was tested, and the T/C [3] was 95 % of control, the T/C [4] was 98 % of control and the T/C [5] was 93 % of control.
For Cn1cnc([N+](=O)[O-])c1/N=C/c1ccccc1, the T/C (dose: 50.0 mg/kg/injection, schedule: Q01DX005 (ip), vehicle: saline) was 98 % of control, the T/C [16] was 100 % of control and the T/C [17] was 104 % of control.
